Test results taken from ChEMBL document CHEMBL1152576, “E-Combretastatin and E-resveratrol structural modifications: antimicrobial and cancer cell growth inhibitory beta-E-nitrostyrenes” (Bioorg Med Chem, 2009).
Values after ≈ are worked out from the molar mass of the structure shown. Active and inactive are the calls of the source. No cut-off for these calls is given here.

Legend:
[1] = tested on: SK-MEL-5; experiment: Cytotoxicity against human SK-MEL-5 cells after 48 hrs by sulforhodamine B assay; format: functional
[2] = tested on: Escherichia coli; experiment: Antimicrobial activity against Escherichia coli ATCC 25922 assessed clear zone in inhibition per disk by CLSI disk diffusion susceptibility assay; format: functional
[3] = tested on: Candida albicans; experiment: Antifungal activity against Candida albicans ATCC 90028 after 48 hrs by broth microdilution susceptibility assay; format: functional; details: ATCC 90028, 48 h
[4] = tested on: Neisseria gonorrhoeae; experiment: Antimicrobial activity against Neisseria gonorrhoeae ATCC 49226 after 24 hrs by broth microdilution susceptibility assay; format: functional; details: ATCC 49226, 24 h
[5] = tested on: Streptococcus pneumoniae; experiment: Antimicrobial activity against Streptococcus pneumoniae ATCC 6303 after 24 hrs by broth microdilution susceptibility assay; format: functional; details: ATCC 6303, 24 h
[6] = tested on: Enterobacter cloacae; experiment: Antimicrobial activity against Enterobacter cloacae ATCC 13047 assessed clear zone in inhibition per disk by CLSI disk diffusion susceptibility assay; format: functional
[7] = tested on: Micrococcus luteus; experiment: Antimicrobial activity against Micrococcus luteus Presque Isle 456 assessed clear zone in inhibition per disk by CLSI disk diffusion susceptibility assay; format: functional
[8] = tested on: Stenotrophomonas maltophilia; experiment: Antimicrobial activity against Stenotrophomonas maltophilia ATCC 13637 assessed clear zone in inhibition per disk by CLSI disk diffusion susceptibility assay; format: functional
[9] = tested on: Cryptococcus neoformans; experiment: Antimicrobial activity against Cryptococcus neoformans ATCC 90112 assessed clear zone in inhibition per disk by CLSI disk diffusion susceptibility assay; format: functional
[10] = tested on: Micrococcus luteus; experiment: Antimicrobial activity against Micrococcus luteus Presque Isle 456 after 24 hrs by broth microdilution susceptibility assay; format: functional; details: Presque Isle 456, 24 h
[11] = tested on: NCI-H460; experiment: Cytotoxicity against human NCI-H460 cells after 48 hrs by sulforhodamine B assay; format: functional; details: NCI-H460, 48 h
[12] = tested on: Candida albicans; experiment: Antimicrobial activity against Candida albicans ATCC 90028 assessed clear zone in inhibition per disk by CLSI disk diffusion susceptibility assay; format: functional
[13] = tested on: Staphylococcus aureus; experiment: Antimicrobial activity against Staphylococcus aureus ATCC 29213 assessed clear zone in inhibition per disk by CLSI disk diffusion susceptibility assay; format: functional
[14] = tested on: Cryptococcus neoformans; experiment: Antifungal activity against Cryptococcus neoformans ATCC 90112 after 72 hrs by broth microdilution susceptibility assay; format: functional; details: ATCC 90112, 72 h
[15] = tested on: Stenotrophomonas maltophilia; experiment: Antimicrobial activity against Stenotrophomonas maltophilia ATCC 13637 after 24 hrs by broth microdilution susceptibility assay; format: functional; details: ATCC 13637, 24 h
[16] = tested on: Streptococcus pneumoniae; experiment: Antimicrobial activity against Streptococcus pneumoniae ATCC 6303 by broth microdilution susceptibility assay; format: functional
[17] = tested on: Enterococcus faecalis; experiment: Antimicrobial activity against Enterococcus faecalis ATCC 29212 assessed clear zone in inhibition per disk by CLSI disk diffusion susceptibility assay; format: functional
[18] = tested on: Micrococcus luteus; experiment: Antimicrobial activity against Micrococcus luteus Presque Isle 456 by broth microdilution susceptibility assay; format: functional
[19] = tested on: KM-20L2; experiment: Cytotoxicity against human KM20L2 cells after 48 hrs by sulforhodamine B assay; format: functional; details: KM-20L2, 48 h
[20] = tested on: Streptococcus pneumoniae; experiment: Antimicrobial activity against Streptococcus pneumoniae ATCC 6303 assessed clear zone in inhibition per disk by CLSI disk diffusion susceptibility assay; format: functional
[21] = tested on: Staphylococcus aureus; experiment: Antimicrobial activity against Staphylococcus aureus ATCC 29213 after 24 hrs by broth microdilution susceptibility assay; format: functional; details: ATCC 29213, 24 h
[22] = tested on: DU-145; experiment: Cytotoxicity against human DU145 cells after 48 hrs by sulforhodamine B assay; format: functional; details: DU-145, 48 h
[23] = tested on: Escherichia coli; experiment: Antimicrobial activity against Escherichia coli ATCC 25922 by broth microdilution susceptibility assay; format: functional
[24] = tested on: Neisseria gonorrhoeae; experiment: Antimicrobial activity against Neisseria gonorrhoeae ATCC 49226 assessed clear zone of inhibition measured per disk by CLSI disk diffusion susceptibility assay; format: functional
[25] = tested on: BXPC-3; experiment: Cytotoxicity against human BxPC3 cells after 48 hrs by sulforhodamine B assay; format: functional; details: BXPC-3, 48 h
[26] = tested on: Cryptococcus neoformans; experiment: Antifungal activity against Cryptococcus neoformans ATCC 90112 after 48 hrs by broth microdilution susceptibility assay; format: functional; details: ATCC 90112, 48 h
[27] = tested on: Enterococcus faecalis; experiment: Antimicrobial activity against Enterococcus faecalis ATCC 29212 by broth microdilution susceptibility assay; format: functional
[28] = tested on: P388; experiment: Cytotoxicity against mouse P388 cells after 48 hrs by sulforhodamine B assay; format: functional; details: P388, 48 h, read-out: ED50 (the source's name)
[29] = tested on: SF-295; experiment: Cytotoxicity against human SF295 cells after 48 hrs by sulforhodamine B assay; format: functional
[30] = tested on: Neisseria gonorrhoeae; experiment: Antimicrobial activity against Neisseria gonorrhoeae ATCC 49226 by broth microdilution susceptibility assay; format: functional
[31] = tested on: Enterobacter cloacae; experiment: Antimicrobial activity against Enterobacter cloacae ATCC 13047 by broth microdilution susceptibility assay; format: functional
[32] = tested on: SF-268; experiment: Cytotoxicity against human SF268 cells after 48 hrs by sulforhodamine B assay; format: functional; details: SF-268, 48 h
[33] = tested on: Candida albicans; experiment: Antifungal activity against Candida albicans ATCC 90028 after 24 hrs by broth microdilution susceptibility assay; format: functional; details: ATCC 90028, 24 h
[34] = tested on: MCF7; experiment: Cytotoxicity against human MCF7 cells after 48 hrs by sulforhodamine B assay; format: functional; details: MCF7, 48 h
[35] = tested on: Staphylococcus aureus; experiment: Antimicrobial activity against Staphylococcus aureus ATCC 29213 by broth microdilution susceptibility assay; format: functional
[36] = tested on: OVCAR-3; experiment: Cytotoxicity against human OVCAR-3 cells after 48 hrs by sulforhodamine B assay; format: functional
[37] = tested on: Stenotrophomonas maltophilia; experiment: Antimicrobial activity against Stenotrophomonas maltophilia ATCC 13637 by broth microdilution susceptibility assay; format: functional
[38] = tested on: A498; experiment: Cytotoxicity against human A498 cells after 48 hrs by sulforhodamine B assay; format: functional
[39] = Inhibition of tubulin polymerization
[40] = tested on: Enterococcus faecalis; experiment: Antimicrobial activity against Enterococcus faecalis ATCC 29212 after 24 hrs by broth microdilution susceptibility assay; format: functional; details: ATCC 29212, 24 h
[41] = tested on: Escherichia coli; experiment: Antimicrobial activity against Escherichia coli ATCC 25922 after 24 hrs by broth microdilution susceptibility assay; format: functional; details: ATCC 25922, 24 h

O=[N+]([O-])/C=C/c1c[nH]c2ccccc12
GI50 [1]: inactive
MIC [2]: 25 µg
MIC [3]: 32 µg/mL (≈ 170 µM)
MBC [4]: 8 µg/mL (≈ 42.5 µM)
MBC [5]: > 64 µg/mL
MIC [6]: >100 µg
MIC [7]: 50 µg
MIC [8]: 25 µg
MIC [9]: 6.25 µg
MBC [10]: > 64 µg/mL
GI50 [11]: 1.6 µg/mL (≈ 8.5 µM)
MIC [12]: 12.5 µg
MIC [13]: >100 µg
MIC [14]: 16 µg/mL (≈ 85 µM)
MBC [15]: > 64 µg/mL
MIC [16]: 64 µg/mL (≈ 340 µM)
MIC [17]: >100 µg
MIC [18]: 64 µg/mL (≈ 340 µM)
GI50 [19]: 1.4 µg/mL (≈ 7.44 µM)
MIC [20]: 12.5 µg
MBC [21]: > 64 µg/mL
GI50 [22]: 1.3 µg/mL (≈ 6.91 µM)
MIC [23]: > 64 µg/mL
MIC [24]: 3.12 µg
GI50 [25]: 1.4 µg/mL (≈ 7.44 µM)
MFC [26]: 32 µg/mL (≈ 170 µM)
MIC [27]: 64 µg/mL (≈ 340 µM)
EC50 [28]: 3.7 µg/mL (≈ 19.7 µM)
GI50 [29]: inactive
MIC [30]: 8 µg/mL (≈ 42.5 µM)
MIC [31]: > 64 µg/mL
GI50 [32]: 1.9 µg/mL (≈ 10.1 µM)
MFC [33]: 64 µg/mL (≈ 340 µM)
GI50 [34]: 0.4 µg/mL (≈ 2.13 µM)
MIC [35]: 64 µg/mL (≈ 340 µM)
GI50 [36]: inactive
MIC [37]: 64 µg/mL (≈ 340 µM)
GI50 [38]: inactive
IC50 [39]: 15 µM
MBC [40]: > 64 µg/mL

O=[N+]([O-])/C=C/c1ccc2c(c1)OCO2
GI50 [1]: inactive
MIC [2]: 6.25 µg
MIC [3]: 8 µg/mL (≈ 41.4 µM)
MBC [4]: 2 µg/mL (≈ 10.4 µM)
MBC [5]: 32 µg/mL (≈ 166 µM)
MIC [6]: 12.5 µg
MIC [7]: 50 µg
MIC [8]: 6.25 µg
MIC [9]: 0.78 µg
MBC [10]: > 64 µg/mL
GI50 [11]: 2 µg/mL (≈ 10.4 µM)
MIC [12]: 1.56 µg
MIC [13]: 6.25 µg
MIC [14]: 8 µg/mL (≈ 41.4 µM)
MBC [15]: > 64 µg/mL
MIC [16]: 16 µg/mL (≈ 82.8 µM)
MIC [17]: 6.25 µg
MIC [18]: 64 µg/mL (≈ 331 µM)
GI50 [19]: 1.8 µg/mL (≈ 9.32 µM)
MIC [20]: 0.78 µg
MBC [21]: > 64 µg/mL
MBC [41]: > 64 µg/mL
GI50 [22]: 1.8 µg/mL (≈ 9.32 µM)
MIC [23]: 64 µg/mL (≈ 331 µM)
MIC [24]: <0.78 µg
GI50 [25]: 1.7 µg/mL (≈ 8.8 µM)
MFC [26]: 16 µg/mL (≈ 82.8 µM)
MIC [27]: 64 µg/mL (≈ 331 µM)
EC50 [28]: 2 µg/mL (≈ 10.4 µM)
GI50 [29]: inactive
MIC [30]: 1 µg/mL (≈ 5.18 µM)
MIC [31]: > 64 µg/mL
GI50 [32]: 1.9 µg/mL (≈ 9.84 µM)
MFC [33]: 16 µg/mL (≈ 82.8 µM)
GI50 [34]: 0.58 µg/mL (≈ 3 µM)
MIC [35]: 32 µg/mL (≈ 166 µM)
GI50 [36]: inactive
MIC [37]: 64 µg/mL (≈ 331 µM)
GI50 [38]: inactive
IC50 [39]: 5.3 µM
MBC [40]: > 64 µg/mL
